Each structure is given as a SMILES string.

For one test, the target named is T1, his-galectin-3 (Homo sapiens, UniProt P17931).
T1 construct: purchased Abcam
T1 sequence (P17931 whole entry): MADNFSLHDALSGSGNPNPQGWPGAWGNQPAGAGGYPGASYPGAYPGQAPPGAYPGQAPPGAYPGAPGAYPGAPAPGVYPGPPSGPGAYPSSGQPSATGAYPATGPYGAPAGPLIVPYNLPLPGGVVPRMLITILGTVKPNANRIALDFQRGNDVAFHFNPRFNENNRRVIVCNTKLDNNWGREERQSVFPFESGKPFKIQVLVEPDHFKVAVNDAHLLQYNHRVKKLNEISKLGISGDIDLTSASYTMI
The test can be described thus: TR-FRET assay (in vitro galectin-3 binding inhibitory activity test). Conditions: Table 1; compound at 20 μM; 60 nM his-galectin-3, 15 nM biotin-ASF; read-out: % Inhibitory activity (at 20 μM). Put shortly:
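Compound is premixed with his-galectin-3 (60 nM final), then biotin-ASF (15 nM), Tb anti-His antibody (2 nM) and streptavidin-d2 (20 nM) are added. After at least 3.5 hours at RT in HEPES/NaCl buffer with Tween 20 and BSA, TR-FRET is read at 615/665 nm. DMSO serves as the uninhibited control, ASF omission as background.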
(Time-resolved FRET reads energy transfer from a long-lived donor to a nearby acceptor.)
As for `N[C@@H]1CCO[C@]12O[C@H](CO)[C@H](O)[C@H](n1cc(-c3cc(F)c(F)c(F)c3)nn1)[C@H]2O` [Compound A56, (4R,5S,7R,8R,9S,10R)-4-amino-7-(hydroxymethyl)-9-(4-(3,4,5-trifluorophenyl)-1H-1,2,3-triazol-1-yl)-1,6-dioxaspiro[4.5]decane-8,10-diol], the inhibition at 20 µM was under 25%.

With `O=C(O[C@@H]1[C@@H](n2cc(-c3cc(F)c(F)c(F)c3)nn2)[C@@H](O)[C@@H](CO)O[C@@]12CCCO2)c1ncccc1F` [Compound A77, (5S,7R,8R,9S,10R)-8-hydroxy-7-(hydroxymethyl)-9-(4-(3,4,5-trifluorophenyl)-1H-1,2,3-triazol-1-yl)-1,6-dioxaspiro[4.5]decan-10-yl 3-fluoropicolinate], the inhibition at 20 µM is 25 to 50%.

Take `COc1cccc(CC(=O)N[C@@H]2CCO[C@]23O[C@H](CO)[C@H](O)[C@H](n2cc(-c4cc(F)c(F)c(F)c4)nn2)[C@H]3O)c1` [Compound A116, N-((4R,5S,7R,8R,9S,10R)-8,10-dihydroxy-7-(hydroxymethyl)-9-(4-(3,4,5-trifluorophenyl)-1H-1,2,3-triazol-1-yl)-1,6-dioxaspiro[4.5]decan-4-yl)-2-(3-methoxyphenyl)acetamide]: the inhibition at 20 µM lay within 50 to 75%.

With `O=C(N[C@@H]1CCO[C@]12O[C@H](CO)[C@H](O)[C@H](n1cc(-c3cc(F)c(F)c(F)c3)nn1)[C@H]2O)c1ccc2cc(Cl)ccc2c1` [Compound A149, 6-chloro-N-((4R,5S,7R,8R,9S,10R)-8,10-dihydroxy-7-(hydroxymethyl)-9-(4-(3,4,5-trifluorophenyl)-1H-1,2,3-triazol-1-yl)-1,6-dioxaspiro[4.5]decan-4-yl)-2-naphthamide], the inhibition at 20 µM was 50 to 75%.

Regarding `OC[C@H]1O[C@@]2(CCCNC2)[C@H](O)[C@@H](n2cc(-c3cc(F)c(F)c(F)c3)nn2)[C@H]1O` [Compound A110, (2R,3R,4S,5R,6R)-2-(hydroxymethyl)-4-(4-(3,4,5-trifluorophenyl)-1H-1,2,3-triazol-1-yl)-1-oxa-8-azaspiro[5.5]undecane-3,5-diol], the inhibition at 20 µM was under 25%.

Regarding `OC[C@H]1O[C@]2(OCC[C@H]2NCc2cccc(Br)c2)[C@H](O)[C@@H](n2cc(-c3cc(F)c(F)c(F)c3)nn2)[C@H]1O` [Compound A102, (4R,5S,7R,8R,9S,10R)-4-((3-bromobenzyl)amino)-7-(hydroxymethyl)-9-(4-(3,4,5-trifluorophenyl)-1H-1,2,3-triazol-1-yl)-1,6-dioxaspiro[4.5]decane-8,10-diol], the inhibition at 20 µM lay within 25 to 50%.

As to `O=C(N[C@@H]1CCO[C@]12O[C@H](CO)[C@H](O)[C@H](n1cc(-c3cc(F)c(F)c(F)c3)nn1)[C@H]2O)c1cccc(-c2ccccc2)c1` [Compound A134, N-((4R,5S,7R,8R,9S,10R)-8,10-dihydroxy-7-(hydroxymethyl)-9-(4-(3,4,5-trifluorophenyl)-1H-1,2,3-triazol-1-yl)-1,6-dioxaspiro[4.5]decan-4-yl)-[1.1′ biphenyl]-3-carboxamide], the inhibition at 20 µM was over 75%.

With `COc1cccc(C(=O)N[C@@H]2CCO[C@]23O[C@H](CO)[C@H](O)[C@H](n2cc(-c4cc(F)c(F)c(F)c4)nn2)[C@H]3O)c1` [Compound A118, N-((4R,5S,7R,8R,9S,10R)-8,10-dihydroxy-7-(hydroxymethyl)-9-(4-(3,4,5-trifluorophenyl)-1H-1,2,3-triazol-1-yl)-1,6-dioxaspiro[4.5]decan-4-yl)-3-methoxybenzamide], the inhibition at 20 µM is over 75%.

For the compound `O=C(Cc1ccc2ccccc2c1)N[C@@H]1CCO[C@]12O[C@H](CO)[C@H](O)[C@H](n1cc(-c3cc(F)c(F)c(F)c3)nn1)[C@H]2O` [Compound A115, N-((4R,5S,7R,8R,9S,10R)-8,10-dihydroxy-7-(hydroxymethyl)-9-(4-(3,4,5-trifluorophenyl)-1H-1,2,3-triazol-1-yl)-1,6-dioxaspiro[4.5]decan-4-yl)-2-(naphthalen-2-yl)acetamide], the inhibition at 20 µM fell in the range of 50 to 75%.

On to `Cn1nnc(-c2ccc(CO[C@@H]3[C@@H](n4cc(-c5cc(F)c(F)c(F)c5)nn4)[C@@H](O)[C@@H](CO)O[C@@]34CCCO4)cc2)n1` [Compound A28, (5S,7R,8R,9S,10R)-7-(hydroxymethyl)-10-((4-(2-methyl-2H-tetrazol-5-yl)benzyl)oxy)-9-(4-(3,4,5-trifluorophenyl)-1H-1,2,3-triazol-1-yl)-1,6-dioxaspiro[4.5]decan-8-ol], for which the inhibition at 20 µM was 25 to 50%.

For `OC[C@H]1O[C@]2(OCC[C@H]2NCC2CCCC2)[C@H](O)[C@@H](n2cc(-c3cc(F)c(F)c(F)c3)nn2)[C@H]1O` [Compound A104, (4R,5S,7R,8R,9S,10R)-4-((cyclopentylmethyl)amino)-7-(hydroxymethyl)-9-(4-(3,4,5-trifluorophenyl)-1H-1,2,3-triazol-1-yl)-1,6-dioxaspiro[4.5]decane-8,10-diol], the inhibition at 20 µM is under 25%.

The same test, now with this note: Table 2; compound at 20 μM; 60 nM his-galectin-3, 15 nM biotin-ASF; read-out: % Inhibitory activity (at 20 μM).
For `O=C(N[C@@H]1CCO[C@]12O[C@H](CO)[C@H](O)[C@H](n1cc(-c3cc(F)c(F)c(F)c3)nn1)[C@H]2O)c1coc2ccccc12` [Compound A161, N-((4R,5S,7R,8R,9S,10R)-8,10-dihydroxy-7-(hydroxymethyl)-9-(4-(3,4,5-trifluorophenyl)-1H-1,2,3-triazol-1-yl)-1,6-dioxaspiro[4.5]decan-4-yl)benzofuran-3-carboxamide], the inhibition at 20 µM is over 75%.

Regarding `Cc1ccc(C(=O)N[C@@H]2CCO[C@]23O[C@H](CO)[C@H](O)[C@H](n2cc(-c4cc(F)c(F)c(F)c4)nn2)[C@H]3O)c2ccccc12` [Compound A243, N-((4R,5S,7R,8R,9S,10R)-8,10-dihydroxy-7-(hydroxymethyl)-9-(4-(3,4,5-trifluorophenyl)-1H-1,2,3-triazol-1-yl)-1,6-dioxaspiro[4.5]decan-4-yl)-4-methyl-1-naphthamide], the inhibition at 20 µM was over 75%.

As to `O=C(N[C@@H]1CCO[C@]12O[C@H](CO)[C@H](O)[C@H](n1cc(-c3cc(F)c(F)c(F)c3)nn1)[C@H]2O)c1coc2cccc(Br)c12` [Compound A250, 4-bromo-N-((4R,5S,7R,8R,9S,10R)-8,10-dihydroxy-7-(hydroxymethyl)-9-(4-(3,4,5-trifluorophenyl)-1H-1,2,3-triazol-1-yl)-1,6-dioxaspiro[4.5]decan-4-yl)benzofuran-3-carboxamide], the inhibition at 20 µM is over 75%.

Turning to `O=C(c1ccncc1)N1CCC[C@]2(C1)O[C@H](CO)[C@H](O)[C@H](n1cc(-c3cc(F)c(F)c(F)c3)nn1)[C@H]2O` [Compound A189, ((2R,3R,4S,5R,6R)-3,5-dihydroxy-2-(hydroxymethyl)-4-(4-(3,4,5-trifluorophenyl)-1H-1,2,3-triazol-1-yl)-1-oxa-8-azaspiro[5.5]undecan-8-yl)(pyridin-4-yl)methanone], the inhibition at 20 µM is under 25%.

For `O=C(N[C@@H]1CCO[C@]12O[C@H](CO)[C@H](O)[C@H](n1cc(-c3cc(F)c(F)c(F)c3)nn1)[C@H]2O)c1ccc(Br)c2ncccc12` [Compound A213, 8-bromo-N-((4R,5S,7R,8R,9S,10R)-8,10-dihydroxy-7-(hydroxymethyl)-9-(4-(3,4,5-trifluorophenyl)-1H-1,2,3-triazol-1-yl)-1,6-dioxaspiro[4.5]decan-4-yl)quinoline-5-carboxamide], the inhibition at 20 µM fell in the range of 50 to 75%.

Turning to `O=C(N[C@@H]1CCO[C@]12O[C@H](CO)[C@H](O)[C@H](n1cc(-c3cc(F)c(F)c(F)c3)nn1)[C@H]2O)c1nsc2ccccc12` [Compound A182, N-((4R,5S,7R,8R,9S,10R)-8,10-dihydroxy-7-(hydroxymethyl)-9-(4-(3,4,5-trifluorophenyl)-1H-1,2,3-triazol-1-yl)-1,6-dioxaspiro[4.5]decan-4-yl)benzo[d]isothiazole-3-carboxamide], the inhibition at 20 µM is 50 to 75%.

For the compound `O=C(N[C@@H]1CCO[C@]12O[C@H](CO)[C@H](O)[C@H](n1cc(-c3cc(F)c(F)c(F)c3)nn1)[C@H]2O)c1cccc2sccc12` [Compound A198, N-((4R,5S,7R,8R,9S,10R)-8,10-dihydroxy-7-(hydroxymethyl)-9-(4-(3,4,5-trifluorophenyl)-1H-1,2,3-triazol-1-yl)-1,6-dioxaspiro[4.5]decan-4-yl)benzo[b]thiophene-4-carboxamide], the inhibition at 20 µM is over 75%.

Turning to `Cc1ccc2ccccc2c1C(=O)N[C@@H]1CCO[C@]12O[C@H](CO)[C@H](O)[C@H](n1cc(-c3cc(F)c(F)c(F)c3)nn1)[C@H]2O` [Compound A240, N-((4R,5S,7R,8R,9S,10R)-8,10-dihydroxy-7-(hydroxymethyl)-9-(4-(3,4,5-trifluorophenyl)-1H-1,2,3-triazol-1-yl)-1,6-dioxaspiro[4.5]decan-4-yl)-2-methyl-1-naphthamide], the inhibition at 20 µM lay in the range of 50 to 75%.

For the compound `O=C(N[C@@H]1CCO[C@]12O[C@H](CO)[C@H](O)[C@H](n1cc(-c3cc(F)c(F)c(F)c3)nn1)[C@H]2O)c1csc2ccccc12` [Compound A157, N-((4R,5S,7R,8R,9S,10R)-8,10-dihydroxy-7-(hydroxymethyl)-9-(4-(3,4,5-trifluorophenyl)-1H-1,2,3-triazol-1-yl)-1,6-dioxaspiro[4.5]decan-4-yl)benzo[b]thiophene-3-carboxamide], the inhibition at 20 µM was over 75%.

Staying with this test, now noted: Table 3, found values; compound at 20 μM; 60 nM his-galectin-3, 15 nM biotin-ASF; read-out: % Inhibitory activity (at 20 μM).
As to `O=C(N[C@@H]1CCO[C@]12O[C@H](CO)[C@H](O)[C@H](n1cc(-c3cc(F)c(F)c(F)c3)nn1)[C@H]2O)c1nsc2ccccc12` [Compound A182, N-((4R,5S,7R,8R,9S,10R)-8,10-dihydroxy-7-(hydroxymethyl)-9-(4-(3,4,5-trifluorophenyl)-1H-1,2,3-triazol-1-yl)-1,6-dioxaspiro[4.5]decan-4-yl)benzo[d]isothiazole-3-carboxamide], the inhibition at 20 µM was determined as 73%.

Take `Cc1ccc2ccccc2c1C(=O)N[C@@H]1CCO[C@]12O[C@H](CO)[C@H](O)[C@H](n1cc(-c3cc(F)c(F)c(F)c3)nn1)[C@H]2O` [Compound A240, N-((4R,5S,7R,8R,9S,10R)-8,10-dihydroxy-7-(hydroxymethyl)-9-(4-(3,4,5-trifluorophenyl)-1H-1,2,3-triazol-1-yl)-1,6-dioxaspiro[4.5]decan-4-yl)-2-methyl-1-naphthamide]: the inhibition at 20 µM was 72.1%.

Still in this test, the particulars now being: read-out: % Inhibitory activity (at 20 μM), Table 1; compound at 20 μM; 60 nM his-galectin-3, 15 nM biotin-ASF.
For `O=C(O[C@H]1[C@@H](n2cc(-c3cc(F)c(F)c(F)c3)nn2)[C@@H](O)[C@@H](CO)O[C@@]12CCCO2)c1ccccc1` [Compound A42, (5S,7R,8R,9S,10S)-8-hydroxy-7-(hydroxymethyl)-9-(4-(3,4,5-trifluorophenyl)-1H-1,2,3-triazol-1-yl)-1,6-dioxaspiro[4.5]decan-10-yl benzoate], the inhibition at 20 µM was under 25%.

These data come from US20250026778A1 (TIUMBIO CO., LTD., priority 2021, published 2025).
